This passage reports IC50 results from patent US9340590B2 (priority 2011, dated 2016).

Holding throughout (assay): cell-based
In one assay the target is hNav1.7 (Homo sapiens, UniProt Q15858). The format is cell-based.
A further assay concerns the target hNav1.5 (Homo sapiens, UniProt Q14524). The following applies: IonWorks Quattro, read-out: IWQ Use Nav1.5.
In a further assay the target is hNav1.3 (Homo sapiens, UniProt Q9NY46). The following applies: IonWorks Quattro, read-out: IWQ Use Nav1.3.
Where [1] appears, read: IonWorks Quattro, Use, read-out: IWQ Use Nav1.7.

Like-named read-outs stand apart in the source and are kept apart here. Positions of bridges follow the written chain, without caps; N, C: chain ends. Residues, ends and D or L forms follow the SMILES beside them.

hNav1.5, sequence (Q14524 whole entry, looked up): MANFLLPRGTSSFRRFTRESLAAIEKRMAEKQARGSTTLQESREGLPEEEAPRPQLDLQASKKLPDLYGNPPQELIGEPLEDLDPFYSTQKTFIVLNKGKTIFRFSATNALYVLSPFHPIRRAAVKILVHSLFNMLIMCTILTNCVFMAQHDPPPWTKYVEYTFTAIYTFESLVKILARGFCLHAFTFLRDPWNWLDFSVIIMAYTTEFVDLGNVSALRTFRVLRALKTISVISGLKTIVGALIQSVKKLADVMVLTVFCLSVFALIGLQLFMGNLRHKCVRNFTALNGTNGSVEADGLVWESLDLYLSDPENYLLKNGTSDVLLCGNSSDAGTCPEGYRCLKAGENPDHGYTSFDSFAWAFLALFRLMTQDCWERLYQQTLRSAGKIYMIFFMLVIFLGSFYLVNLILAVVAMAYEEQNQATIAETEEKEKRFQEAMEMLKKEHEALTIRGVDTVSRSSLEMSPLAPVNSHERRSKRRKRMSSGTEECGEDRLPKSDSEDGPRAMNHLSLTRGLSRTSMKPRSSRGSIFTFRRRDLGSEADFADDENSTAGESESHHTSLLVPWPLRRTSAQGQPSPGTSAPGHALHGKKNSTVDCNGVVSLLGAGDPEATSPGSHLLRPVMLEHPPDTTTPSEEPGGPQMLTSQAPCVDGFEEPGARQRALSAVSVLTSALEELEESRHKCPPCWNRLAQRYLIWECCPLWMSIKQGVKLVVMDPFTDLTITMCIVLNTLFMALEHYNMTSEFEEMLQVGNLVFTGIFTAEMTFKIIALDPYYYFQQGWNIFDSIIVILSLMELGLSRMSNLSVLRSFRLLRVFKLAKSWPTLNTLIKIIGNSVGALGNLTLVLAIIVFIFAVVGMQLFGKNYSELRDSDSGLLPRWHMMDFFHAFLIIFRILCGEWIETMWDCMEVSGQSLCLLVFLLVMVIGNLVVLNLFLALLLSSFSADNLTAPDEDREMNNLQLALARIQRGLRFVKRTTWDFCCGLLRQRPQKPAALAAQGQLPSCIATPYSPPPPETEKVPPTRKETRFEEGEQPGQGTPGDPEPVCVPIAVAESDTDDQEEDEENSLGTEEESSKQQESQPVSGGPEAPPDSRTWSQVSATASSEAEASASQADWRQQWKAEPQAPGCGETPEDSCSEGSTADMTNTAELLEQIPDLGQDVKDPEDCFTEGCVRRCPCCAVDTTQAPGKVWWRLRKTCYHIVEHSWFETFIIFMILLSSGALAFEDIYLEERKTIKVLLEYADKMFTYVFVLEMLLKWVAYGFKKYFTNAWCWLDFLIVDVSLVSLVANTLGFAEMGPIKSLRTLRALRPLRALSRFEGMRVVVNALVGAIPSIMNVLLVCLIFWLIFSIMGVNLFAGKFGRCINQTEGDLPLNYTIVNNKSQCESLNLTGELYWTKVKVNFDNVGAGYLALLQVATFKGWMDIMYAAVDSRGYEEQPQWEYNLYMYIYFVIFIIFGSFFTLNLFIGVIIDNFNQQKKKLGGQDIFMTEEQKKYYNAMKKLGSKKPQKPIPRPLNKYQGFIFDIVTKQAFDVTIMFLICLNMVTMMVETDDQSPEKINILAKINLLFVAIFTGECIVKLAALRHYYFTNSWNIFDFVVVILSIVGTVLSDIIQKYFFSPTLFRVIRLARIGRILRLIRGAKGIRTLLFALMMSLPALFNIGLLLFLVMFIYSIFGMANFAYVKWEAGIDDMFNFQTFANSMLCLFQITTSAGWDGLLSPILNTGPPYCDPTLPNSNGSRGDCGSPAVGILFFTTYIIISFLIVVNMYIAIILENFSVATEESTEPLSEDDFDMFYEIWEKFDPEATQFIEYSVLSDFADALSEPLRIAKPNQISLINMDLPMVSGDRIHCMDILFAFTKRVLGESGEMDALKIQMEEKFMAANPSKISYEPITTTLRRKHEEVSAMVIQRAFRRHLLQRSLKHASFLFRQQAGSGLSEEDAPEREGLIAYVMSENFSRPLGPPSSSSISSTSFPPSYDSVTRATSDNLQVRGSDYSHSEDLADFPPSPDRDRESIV
hNav1.7, sequence (Q15858 whole entry, looked up): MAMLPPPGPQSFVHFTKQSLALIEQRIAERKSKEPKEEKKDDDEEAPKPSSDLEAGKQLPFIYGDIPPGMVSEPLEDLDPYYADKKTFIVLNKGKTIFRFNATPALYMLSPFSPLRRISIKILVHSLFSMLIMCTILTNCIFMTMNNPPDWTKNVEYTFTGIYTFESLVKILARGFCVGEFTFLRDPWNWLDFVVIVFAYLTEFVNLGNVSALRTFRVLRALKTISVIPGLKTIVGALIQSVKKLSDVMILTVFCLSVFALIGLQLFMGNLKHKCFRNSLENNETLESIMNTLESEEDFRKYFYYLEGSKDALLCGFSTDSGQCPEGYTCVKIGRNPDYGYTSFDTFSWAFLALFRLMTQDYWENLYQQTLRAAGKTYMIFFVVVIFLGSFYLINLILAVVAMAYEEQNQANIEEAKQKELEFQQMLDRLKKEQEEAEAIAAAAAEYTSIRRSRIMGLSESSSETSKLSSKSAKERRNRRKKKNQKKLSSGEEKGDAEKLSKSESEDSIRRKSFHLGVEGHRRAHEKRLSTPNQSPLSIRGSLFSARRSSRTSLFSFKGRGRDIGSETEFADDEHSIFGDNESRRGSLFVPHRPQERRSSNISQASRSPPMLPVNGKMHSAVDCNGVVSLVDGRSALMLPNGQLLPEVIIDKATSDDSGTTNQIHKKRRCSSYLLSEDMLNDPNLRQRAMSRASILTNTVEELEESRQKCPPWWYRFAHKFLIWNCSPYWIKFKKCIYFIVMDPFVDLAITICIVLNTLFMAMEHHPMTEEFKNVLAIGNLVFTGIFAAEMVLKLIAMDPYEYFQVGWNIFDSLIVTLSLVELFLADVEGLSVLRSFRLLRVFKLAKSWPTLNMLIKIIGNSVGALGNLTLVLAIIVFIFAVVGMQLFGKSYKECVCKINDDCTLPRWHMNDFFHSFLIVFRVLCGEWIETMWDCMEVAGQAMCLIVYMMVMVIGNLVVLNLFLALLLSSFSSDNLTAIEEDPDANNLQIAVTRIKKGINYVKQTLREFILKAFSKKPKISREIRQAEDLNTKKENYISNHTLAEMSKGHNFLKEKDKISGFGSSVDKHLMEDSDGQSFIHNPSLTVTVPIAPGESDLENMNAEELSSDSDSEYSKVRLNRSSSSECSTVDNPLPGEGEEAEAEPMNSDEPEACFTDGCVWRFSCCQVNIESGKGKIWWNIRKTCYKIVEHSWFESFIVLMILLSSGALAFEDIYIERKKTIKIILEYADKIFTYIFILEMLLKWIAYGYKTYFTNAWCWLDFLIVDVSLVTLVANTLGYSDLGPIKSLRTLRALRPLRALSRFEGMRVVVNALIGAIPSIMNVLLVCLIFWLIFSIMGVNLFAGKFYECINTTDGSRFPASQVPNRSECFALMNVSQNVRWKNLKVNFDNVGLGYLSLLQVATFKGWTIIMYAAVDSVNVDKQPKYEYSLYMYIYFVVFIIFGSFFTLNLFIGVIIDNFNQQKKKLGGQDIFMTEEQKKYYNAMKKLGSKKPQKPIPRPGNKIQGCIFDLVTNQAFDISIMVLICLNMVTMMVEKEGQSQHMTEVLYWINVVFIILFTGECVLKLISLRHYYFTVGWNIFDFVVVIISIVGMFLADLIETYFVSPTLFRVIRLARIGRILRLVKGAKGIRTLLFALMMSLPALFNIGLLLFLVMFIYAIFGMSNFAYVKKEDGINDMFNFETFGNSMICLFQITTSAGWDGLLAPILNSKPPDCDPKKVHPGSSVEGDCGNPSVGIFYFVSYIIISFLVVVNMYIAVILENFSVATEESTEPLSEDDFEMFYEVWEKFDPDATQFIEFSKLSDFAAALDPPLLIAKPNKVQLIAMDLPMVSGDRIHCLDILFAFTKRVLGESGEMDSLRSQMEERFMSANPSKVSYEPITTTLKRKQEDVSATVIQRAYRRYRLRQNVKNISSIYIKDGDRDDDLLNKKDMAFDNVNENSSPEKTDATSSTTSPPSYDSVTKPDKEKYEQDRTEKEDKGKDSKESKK

Consider `CC[C@H](C)[C@@H]1NC(=O)[C@@H]2CSSC[C@@H]3NC(=O)[C@H](C(C)C)NC(=O)[C@H](CC(C)C)NC(=O)[C@H](CC(N)=O)NC(=O)[C@@H]4CCCN4C(=O)[C@H](CCCNC(=N)N)NC(=O)[C@H](CSSC[C@H](NC(=O)[C@@H](N)CC(=O)O)C(=O)N[C@@H](CC(C)C)C(=O)NCC(=O)N[C@@H](Cc4ccccc4)C(=O)N[C@@H](CCSC)C(=O)N[C@@H](CCCNC(=N)N)C(=O)N[C@@H](CCCCN)C(=O)N2)NC(=O)[C@H](CSSC[C@@H](C(=O)N[C@@H](CCCCN)C(=O)N[C@@H](Cc2ccc(O)cc2)C(=O)N[C@H](C(=O)N[C@@H](Cc2ccccc2)C(=O)N[C@@H](Cc2c[nH]c4ccccc24)C(N)=O)C(C)C)NC(=O)[C@H](Cc2c[nH]c4ccccc24)NC(=O)[C@H](CCCCN)NC(=O)[C@H](Cc2c[nH]cn2)NC(=O)[C@H]([C@@H](C)O)NC(=O)[C@H](CCCNC(=N)N)NC(=O)[C@H](CO)NC3=O)NC(=O)[C@H](CCCCN)NC(=O)[C@H](CC(=O)O)NC(=O)[C@H](CC(N)=O)NC(=O)[C@H](CC(=O)O)NC(=O)[C@@H]2CCCN2C1=O` [compound 87], for which the IC50 at hNav1.7 (IonWorks Quattro, use-dependent, […], read-out: IWQ Use Nav1.7 (μm)) stood at 50 nM; on hNav1.5 (use-dependent, […]) it was 7870 nM; at hNav1.3 (use-dependent, […]) it was 70 nM.

`CSCC[C@@H]1NC(=O)[C@H](Cc2ccccc2)NC(=O)CNC(=O)[C@H](CC(C)C)NC(=O)[C@@H](NC(=O)[C@@H](N)CC(=O)O)CSSC[C@@H]2NC(=O)[C@@H]3CSSC[C@@H](C(=O)N[C@@H](CCCCN)C(=O)N[C@@H](Cc4ccc(O)cc4)C(=O)N[C@H](C(=O)N[C@@H](Cc4ccccc4)C(N)=O)C(C)C)NC(=O)[C@H](Cc4c[nH]c5ccccc45)NC(=O)[C@H](CCCCN)NC(=O)[C@H](Cc4cnc[nH]4)NC(=O)[C@H]([C@@H](C)O)NC(=O)[C@H](CCCNC(=N)N)NC(=O)[C@H](CO)NC(=O)[C@H](CSSC[C@H](NC(=O)[C@H](CCCCN)NC(=O)[C@H](CCCNC(=N)N)NC1=O)C(=O)N[C@@H](CC(N)=O)C(=O)N1CCC[C@H]1C(=O)N[C@@H](CC(=O)O)C(=O)N[C@@H](CC(N)=O)C(=O)N[C@@H](CC(=O)O)C(=O)N[C@@H](CCCCN)C(=O)N3)NC(=O)[C@H](C(C)C)NC(=O)[C@H](CC(C)C)NC(=O)[C@H](CC(N)=O)NC(=O)[C@@H]1CCCN1C(=O)[C@H](CCCNC(=N)N)NC2=O` [compound 90] (H-DCLGFMRKCNPDNDKCCRPNLVCSRTHKWCKYVF-NH2; disulfide 2-17, 9-23, 16-30): the values for the IC50 on hNav1.7, on hNav1.5 (Use) and on hNav1.3 (Use) were 490 nM, 14100 nM and 190 nM, respectively.

Regarding `CC[C@H](C)[C@@H]1NC(=O)[C@@H]2CSSC[C@@H]3NC(=O)[C@H](C(C)C)NC(=O)[C@H](CC(C)C)NC(=O)[C@H](CC(N)=O)NC(=O)[C@@H]4CCCN4C(=O)[C@H](CCCNC(=N)N)NC(=O)[C@H](CSSC[C@H](NC(=O)[C@@H](N)CC(=O)O)C(=O)N[C@@H](CC(C)C)C(=O)NCC(=O)N[C@@H](Cc4ccccc4)C(=O)N[C@@H](CCSC)C(=O)N[C@@H](CCCNC(=N)N)C(=O)N[C@@H](CCCCN)C(=O)N2)NC(=O)[C@H](CSSC[C@@H](C(=O)N[C@@H](CCCCN)C(=O)N[C@@H](Cc2ccc(O)cc2)C(=O)N[C@H](C(=O)N[C@@H](Cc2ccccc2)C(N)=O)C(C)C)NC(=O)[C@H](Cc2c[nH]c4ccccc24)NC(=O)[C@H](CCCCN)NC(=O)[C@H](Cc2c[nH]cn2)NC(=O)[C@H]([C@@H](C)O)NC(=O)[C@H](CCCNC(=N)N)NC(=O)[C@H](CO)NC3=O)NC(=O)[C@H](CCCCN)NC(=O)[C@H](CC(=O)O)NC(=O)[C@H](CC(N)=O)NC(=O)[C@H](CO)NC(=O)[C@@H]2CCCN2C1=O` [compound 91] (H-DCLGFMRKCIPSNDKCCRPNLVCSRTHKWCKYVF-NH2; disulfide 2-17, 9-23, 16-30), the IC50 on hNav1.7 (setting [1]) was 80 nM; on hNav1.5 (Use), 9580 nM; on hNav1.3 (Use), 190 nM.

For `CC[C@H](C)[C@@H]1NC(=O)[C@@H]2CSSC[C@@H]3NC(=O)[C@H](C(C)C)NC(=O)[C@H](CC(C)C)NC(=O)[C@H](CC(N)=O)NC(=O)[C@@H]4CCCN4C(=O)[C@H](CCCNC(=N)N)NC(=O)[C@H](CSSC[C@H](NC(=O)[C@@H](N)CC(=O)O)C(=O)N[C@@H](CC(C)C)C(=O)NCC(=O)N[C@@H](Cc4ccccc4)C(=O)N[C@@H](CCSC)C(=O)N[C@@H](CCCNC(=N)N)C(=O)N[C@@H](CCCCN)C(=O)N2)NC(=O)[C@H](CSSC[C@@H](C(=O)N[C@@H](CCCCN)C(=O)N[C@@H](Cc2ccc(O)cc2)C(=O)N[C@H](C(=O)N[C@@H](Cc2ccccc2)C(N)=O)C(C)C)NC(=O)[C@H](Cc2c[nH]c4ccccc24)NC(=O)[C@H](CCCCN)NC(=O)[C@H](Cc2c[nH]cn2)NC(=O)[C@H]([C@@H](C)O)NC(=O)[C@H](CCCNC(=N)N)NC(=O)[C@H](CO)NC3=O)NC(=O)[C@H](CCC(N)=O)NC(=O)[C@H](CC(=O)O)NC(=O)[C@H](CC(N)=O)NC(=O)[C@H](CC(=O)O)NC(=O)[C@@H]2CCCN2C1=O` [compound 92] (H-DCLGFMRKCIPDNDQCCRPNLVCSRTHKWCKYVF-NH2; disulfide 2-17, 9-23, 16-30), the IC50 was determined as 130 nM at hNav1.7 (setting [1]), 7600 nM on hNav1.5 (Use) and 120 nM on hNav1.3 (Use).

For `CC[C@H](C)[C@@H]1NC(=O)[C@@H]2CSSC[C@@H]3NC(=O)[C@H](C(C)C)NC(=O)[C@H](CC(C)C)NC(=O)[C@H](CC(N)=O)NC(=O)[C@@H]4CCCN4C(=O)[C@H](CCCNC(=N)N)NC(=O)[C@H](CSSC[C@H](NC(=O)[C@@H](N)CC(=O)O)C(=O)N[C@@H](CC(C)C)C(=O)NCC(=O)N[C@@H](Cc4ccccc4)C(=O)N[C@@H](CCSC)C(=O)N[C@@H](CCCNC(=N)N)C(=O)N[C@@H](CCCCN)C(=O)N2)NC(=O)[C@H](CSSC[C@@H](C(=O)N[C@@H](CCCCN)C(=O)N[C@@H](Cc2ccc(O)cc2)C(=O)N[C@H](C(=O)N[C@@H](Cc2ccccc2)C(N)=O)C(C)C)NC(=O)[C@H](Cc2c[nH]c4ccccc24)NC(=O)[C@H](CCCCN)NC(=O)[C@H]([C@@H](C)O)NC(=O)[C@H](CCCCN)NC(=O)[C@H](CCCNC(=N)N)NC(=O)[C@H](CO)NC3=O)NC(=O)[C@H](CCCCN)NC(=O)[C@H](CC(=O)O)NC(=O)[C@H](CC(N)=O)NC(=O)[C@H](CC(=O)O)NC(=O)[C@@H]2CCCN2C1=O` [compound 94] (H-DCLGFMRKCIPDNDKCCRPNLVCSRKTKWCKYVF-NH2; disulfide 2-17, 9-23, 16-30), the IC50 on hNav1.7 (Table 22, IonWorks Quattro, use, […], read-out: IWQ Use Nav1.7) was found to be 100 nM; at hNav1.5 (Table 22, use, […]), 9290 nM; on hNav1.3 (Table 22, use, […]) it was 50 nM.

Take `CC[C@H](C)[C@@H]1NC(=O)[C@@H]2CSSC[C@@H]3NC(=O)[C@H](C(C)C)NC(=O)[C@H](CC(C)C)NC(=O)[C@H](CC(N)=O)NC(=O)[C@@H]4CCCN4C(=O)[C@H](CCCNC(=N)N)NC(=O)[C@H](CSSC[C@H](NC(=O)[C@@H](N)CC(=O)O)C(=O)N[C@@H](CC(C)C)C(=O)NCC(=O)N[C@@H](Cc4ccccc4)C(=O)N[C@@H](CCSC)C(=O)N[C@@H](CCCNC(=N)N)C(=O)N[C@@H](CCCCN)C(=O)N2)NC(=O)[C@H](CSSC[C@@H](C(=O)N[C@@H](CCCCN)C(=O)N[C@@H](Cc2ccc(O)cc2)C(=O)N[C@@H](CCC(N)=O)C(=O)N[C@@H](Cc2ccccc2)C(N)=O)NC(=O)[C@H](Cc2c[nH]c4ccccc24)NC(=O)[C@H](CCCCN)NC(=O)[C@H](Cc2c[nH]cn2)NC(=O)[C@H]([C@@H](C)O)NC(=O)[C@H](CCCNC(=N)N)NC(=O)[C@H](CO)NC3=O)NC(=O)[C@H](CCCCN)NC(=O)[C@H](CC(=O)O)NC(=O)[C@H](CC(N)=O)NC(=O)[C@H](CC(=O)O)NC(=O)[C@@H]2CCCN2C1=O` [compound 95] (H-DCLGFMRKCIPDNDKCCRPNLVCSRTHKWCKYQF-NH2; disulfide 2-17, 9-23, 16-30): the IC50 on hNav1.7 (Table 26, IonWorks Quattro, use, […], read-out: IWQ Use Nav1.7) was determined as 120 nM; on hNav1.5 (Table 26, use, […]), 10600 nM; on hNav1.3 (Table 26, use, […]), 110 nM.

For the molecule `CC[C@H](C)[C@H](NC(=O)[C@@H](NC(=O)[C@H](Cc1ccc(O)cc1)NC(=O)[C@H](CCCCN)NC(=O)[C@@H]1CSSC[C@@H]2NC(=O)[C@H](CCCCN)NC(=O)[C@H](CC(=O)O)NC(=O)[C@H](CC(N)=O)NC(=O)[C@H](CC(=O)O)NC(=O)[C@@H]3CCCN3C(=O)[C@H]([C@@H](C)CC)NC(=O)[C@@H]3CSSC[C@H](NC(=O)[C@H](C(C)C)NC(=O)[C@H](CC(C)C)NC(=O)[C@H](CC(N)=O)NC(=O)[C@@H]4CCCN4C(=O)[C@H](CCCNC(=N)N)NC(=O)[C@H](CSSC[C@H](NC(=O)[C@@H](N)CC(=O)O)C(=O)N[C@@H](CC(C)C)C(=O)NCC(=O)N[C@@H](Cc4ccccc4)C(=O)N[C@@H](CCSC)C(=O)N[C@@H](CCCNC(=N)N)C(=O)N[C@@H](CCCCN)C(=O)N3)NC2=O)C(=O)N[C@@H](CO)C(=O)N[C@@H](CCCNC(=N)N)C(=O)N[C@@H]([C@@H](C)O)C(=O)N[C@@H](Cc2c[nH]cn2)C(=O)N[C@@H](CCCCN)C(=O)N[C@@H](Cc2c[nH]c3ccccc23)C(=O)N1)C(C)C)C(N)=O` [compound 96] (H-DCLGFMRKCIPDNDKCCRPNLVCSRTHKWCKYVI-NH2; disulfide 2-17, 9-23, 16-30), the IC50 is 280 nM on hNav1.7 (IonWorks Quattro, use-dependent, […], read-out: IWQ Use Nav1.7); 10800 nM on hNav1.5 (use-dependent, […]); 280 nM on hNav1.3 (use-dependent, […]).
